The text below walks through data of patent US12673975B2, “Cyclic peptide, cell scaffold material, cell separating material, and medium” (FUJIFILM Corporation, priority 2019, dated 2026).

Like-named read-outs stand apart in the source and are kept apart here. Starred links: 1 amine or outer side, 2 acyl side, 3 side chain; linkers in the order of their positions; H or OH if unused. Positions of bridges follow the written chain, without caps; N, C: chain ends. Non-standard residues stand in square brackets, D forms with d. Residues, ends and D or L forms follow the SMILES beside them. hCys = N[C@@H](CCS)C(=O)O; Orn = NCCC[C@H](N)C(=O)O; Dab = NCC[C@H](N)C(=O)O; X1 = O=C(C[*:2])[*:1]; X2 = O=C(C[*:1])[*:2]

Data set [1] in a line: Evaluation of molecule stability (alkali treatment, residual rate by LC/MS). It is filed as physicochemical. The settings on record: for Stability (molecule stability, residual rate of the cyclic peptide rank): alkali treatment, residual rate by LC/MS; for Performance evaluation: Stability (residual rate of cyclic peptide after alkali treatment): 500 μM peptide aqueous solution plus equivalent of 1 M sodium hydroxide, 15° C., 3 hours, LC/MS peak area. The method in brief:
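500 μM aqueous cyclic peptide mixed with an equal volume of 1 M NaOH and held 3 h at 15 °C. Residual rate is total LC/MS peak area after treatment relative to untreated (100%), using a C18 column, pH 3 ammonium formate/acetonitrile gradient, 45 °C, ESI±.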

The next data set addresses human integrin αvβ5 (Homo sapiens, UniProt P06756+P18084). Briefly: Evaluation of integrin binding property (surface plasmon resonance, Biacore 3000, immobilized cyclic peptide). The method in brief:
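SPR with cyclic peptide amine-coupled via EDC/NHS to a CM5 chip, blank channel as reference. Integrin αvβ5 at 30, 100, 300 and 1,000 nM injected 10 min at 25 °C in HEPES buffer pH 7.4 with 5 mM MgCl2, 30 min buffer flow, EDTA regeneration; Kd from reference-subtracted signals, graded by category.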
Background: Surface plasmon resonance follows binding to a sensor surface in real time, without labels.

Setting [2] is: surface plasmon resonance, immobilized cyclic peptide, human integrin αvβ5, read-out: Binding activity (integrin binding property, dissociation constant rank).
[3] abbreviates: SPR, 25° C., HEPES buffer with 5 mM magnesium chloride, integrin 30-1,000 nM, read-out: Performance evaluation: Binding activity (dissociation constant between the cyclic peptide and human integrin αvβ5).

human integrin αvβ5, sequence (P06756 31-1048): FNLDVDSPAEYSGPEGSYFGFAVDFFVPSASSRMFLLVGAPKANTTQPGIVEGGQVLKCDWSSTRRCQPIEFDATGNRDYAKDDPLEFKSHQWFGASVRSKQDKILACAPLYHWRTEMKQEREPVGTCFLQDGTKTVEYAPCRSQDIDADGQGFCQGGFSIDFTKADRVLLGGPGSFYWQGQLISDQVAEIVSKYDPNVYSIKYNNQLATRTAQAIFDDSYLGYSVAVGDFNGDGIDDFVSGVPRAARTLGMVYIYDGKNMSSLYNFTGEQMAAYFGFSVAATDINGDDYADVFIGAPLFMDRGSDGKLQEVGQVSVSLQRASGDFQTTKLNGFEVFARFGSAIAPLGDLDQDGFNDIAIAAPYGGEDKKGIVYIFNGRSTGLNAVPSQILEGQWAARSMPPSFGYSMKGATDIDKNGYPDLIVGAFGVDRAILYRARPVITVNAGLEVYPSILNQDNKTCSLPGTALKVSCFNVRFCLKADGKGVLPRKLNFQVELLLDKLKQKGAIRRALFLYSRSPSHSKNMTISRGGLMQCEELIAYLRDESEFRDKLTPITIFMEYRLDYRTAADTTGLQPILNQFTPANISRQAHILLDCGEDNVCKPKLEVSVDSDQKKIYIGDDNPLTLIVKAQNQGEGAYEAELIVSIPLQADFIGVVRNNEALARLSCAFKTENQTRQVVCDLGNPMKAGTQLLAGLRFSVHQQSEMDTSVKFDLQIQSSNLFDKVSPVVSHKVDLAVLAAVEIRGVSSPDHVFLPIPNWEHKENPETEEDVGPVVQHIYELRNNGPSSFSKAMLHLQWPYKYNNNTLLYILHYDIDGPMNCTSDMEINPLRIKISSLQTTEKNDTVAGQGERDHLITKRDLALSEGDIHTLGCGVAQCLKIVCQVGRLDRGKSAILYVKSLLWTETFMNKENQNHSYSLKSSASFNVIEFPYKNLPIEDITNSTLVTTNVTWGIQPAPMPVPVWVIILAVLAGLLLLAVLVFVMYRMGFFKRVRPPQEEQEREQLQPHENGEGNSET
human integrin αvβ5, sequence (P18084 24-799): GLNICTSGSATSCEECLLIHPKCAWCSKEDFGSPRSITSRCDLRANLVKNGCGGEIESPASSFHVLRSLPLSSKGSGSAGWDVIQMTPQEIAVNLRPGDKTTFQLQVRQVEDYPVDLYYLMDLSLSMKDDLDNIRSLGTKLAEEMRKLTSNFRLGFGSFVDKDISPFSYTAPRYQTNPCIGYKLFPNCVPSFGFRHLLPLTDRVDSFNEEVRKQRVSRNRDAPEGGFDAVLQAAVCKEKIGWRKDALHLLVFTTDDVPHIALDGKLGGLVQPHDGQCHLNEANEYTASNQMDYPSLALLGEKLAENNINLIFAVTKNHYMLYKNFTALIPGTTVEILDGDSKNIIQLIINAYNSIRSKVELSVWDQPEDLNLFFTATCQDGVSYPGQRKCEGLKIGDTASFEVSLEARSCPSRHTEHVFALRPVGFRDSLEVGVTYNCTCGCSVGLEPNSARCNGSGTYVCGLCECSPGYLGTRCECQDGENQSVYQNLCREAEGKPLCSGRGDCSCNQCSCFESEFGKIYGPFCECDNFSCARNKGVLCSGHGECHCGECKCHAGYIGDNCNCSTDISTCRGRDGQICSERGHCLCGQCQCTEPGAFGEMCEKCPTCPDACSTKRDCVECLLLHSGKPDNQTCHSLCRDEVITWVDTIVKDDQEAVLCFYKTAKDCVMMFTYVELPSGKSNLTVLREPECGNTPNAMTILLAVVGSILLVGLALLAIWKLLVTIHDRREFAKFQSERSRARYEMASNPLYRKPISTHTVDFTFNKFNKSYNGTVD

As to `CC[C@H](C)[C@@H]1NC(=O)[C@@H](NC(=O)[C@H](C)NC(=O)[C@H](CCCCN)NC(=O)[C@H](CCCCN)NC(=O)[C@@H](N)CCCCN)CCNC(=O)CSCC[C@@H](C(=O)N[C@@H](C)C(=O)O)NC(=O)[C@H](C)NC(=O)[C@H](Cc2ccccc2)NC(=O)[C@H](CO)NC(=O)[C@H](CC(=O)O)NC(=O)CNC(=O)[C@H](CCCNC(=N)N)NC(=O)[C@@H]2CCCN2C1=O` [Cyclic peptide 124, KKKA(Dab(acetyl))IPRGDSFA-(Hcy)-A] (H-KKKA[Dab]IPRGDSFA[hCys]A-OH; linker 5-14 via X1), the “Stability (molecule stability, residual rate of the cyclic peptide rank)” value in data set [1] is “A (The residual rate of the cyclic peptide is 70% or more.)”. Moreover, the Kd on human integrin αvβ5 (setting [2]) fell in the range of 50 to 100 nM.
With `CC[C@H](C)[C@@H]1NC(=O)[C@@H](NC(=O)[C@H](CCCCN)NC(=O)[C@H](CCCCN)NC(=O)[C@@H](N)CCCCN)CCSCC(=O)NCC[C@@H](C(=O)N[C@@H](C)C(=O)O)NC(=O)[C@H](Cc2ccccc2)NC(=O)[C@H]([C@@H](C)O)NC(=O)[C@H](CC(=O)O)NC(=O)CNC(=O)[C@H](CCCNC(=N)N)NC(=O)[C@@H]2CCCN2C1=O` [Cyclic peptide 60, KKK-(Hcy)-IPRGDTF(Dab(acetyl))A] (H-KKK[hCys]IPRGDTF[Dab]A-OH; linker 4-12 via X2), in data set [1], the “Performance evaluation: Stability (residual rate of cyclic peptide after alkali treatment)” value is recorded as “A (The residual rate of the cyclic peptide is 70% or more.)”. Moreover, the Kd at human integrin αvβ5 (setting [3]) was below 50 nM.
Regarding `CC(C)C[C@@H]1NC(=O)[C@@H](NC(=O)[C@H](CCCCN)NC(=O)[C@H](CCCCN)NC(=O)[C@@H](N)CCCCN)CCSCC(=O)NCC[C@@H](C(=O)O)NC(=O)[C@H](C)NC(=O)[C@H](Cc2ccccc2)NC(=O)[C@H]([C@@H](C)O)NC(=O)[C@H](CC(=O)O)NC(=O)CNC(=O)[C@H](CCCNC(=N)N)NC(=O)[C@@H]2CCCN2C1=O` [Cyclic peptide 146, KKK-(Hcy)-LPRGDTFA(Dab(acetyl))] (H-KKK[hCys]LPRGDTFA[Dab]-OH; linker 4-13 via X2), in data set [1], the “Stability (molecule stability, residual rate of the cyclic peptide rank)” value is “A (The residual rate of the cyclic peptide is 70% or more.)”. The Kd at human integrin αvβ5 (setting [2]) was below 50 nM.
In the case of `CC[C@H](C)[C@@H]1NC(=O)[C@@H](NC(=O)CNC(=O)[C@H](CCCCN)NC(=O)[C@H](CCCCN)NC(=O)[C@@H](N)CCCCN)CCSCC(=O)NCCC[C@@H](C(=O)N[C@@H](C)C(=O)O)NC(=O)[C@H](CCCNC(=N)N)NC(=O)[C@H](Cc2ccccc2)NC(=O)[C@H]([C@@H](C)O)NC(=O)[C@H](CC(=O)O)NC(=O)CNC(=O)[C@H](CCCNC(=N)N)NC(=O)[C@@H]2CCCN2C1=O` [Cyclic peptide 115, KKKG-(Hcy)-IPRGDTFR(Orn(acetyl))A] (H-KKKG[hCys]IPRGDTFR[Orn]A-OH; linker 5-14 via X2), in data set [1], the “Stability (molecule stability, residual rate of the cyclic peptide rank)” value is “A (The residual rate of the cyclic peptide is 70% or more.)”. For the same compound, the Kd on human integrin αvβ5 (setting [2]) is below 50 nM.
As to `CC[C@H](C)[C@@H]1NC(=O)[C@@H](NC(=O)CNC(=O)[C@H](CCCCN)NC(=O)[C@H](CCCCN)NC(=O)[C@@H](N)CCCCN)CCSCC(=O)NCC[C@@H](C(=O)NCC(=O)O)NC(=O)[C@H](CCCNC(=N)N)NC(=O)[C@H](Cc2ccccc2)NC(=O)[C@H]([C@@H](C)O)NC(=O)[C@H](CC(=O)O)NC(=O)CNC(=O)[C@H](CCCNC(=N)N)NC(=O)[C@@H]2CCCN2C1=O` [Cyclic peptide 55, KKKG-(Hcy)-IPRGDTFR(Dab(acetyl))G] (H-KKKG[hCys]IPRGDTFR[Dab]G-OH; linker 5-14 via X2), the “Performance evaluation: Stability (residual rate of cyclic peptide after alkali treatment)” value in data set [1] is on record as “A (The residual rate of the cyclic peptide is 70% or more.)”. In addition, the Kd on human integrin αvβ5 (setting [3]) is below 50 nM.
Regarding `CC(C)[C@@H]1NC(=O)[C@@H](NC(=O)[C@H](CCCCN)NC(=O)[C@H](CCCCN)NC(=O)[C@@H](N)CCCCN)CCSCC(=O)NCC[C@@H](C(=O)N[C@@H](C)C(=O)O)NC(=O)[C@H](C)NC(=O)[C@H](Cc2ccccc2)NC(=O)[C@H]([C@@H](C)O)NC(=O)[C@H](CC(=O)O)NC(=O)CNC(=O)[C@H](CCCNC(=N)N)NC(=O)[C@@H]2CCCN2C1=O` [Cyclic peptide 165, KKK-(Hcy)-VPRGDTFA(Dab(acetyl))A] (H-KKK[hCys]VPRGDTFA[Dab]A-OH; linker 4-13 via X2), in data set [1], the “Stability (molecule stability, residual rate of the cyclic peptide rank)” value is “A (The residual rate of the cyclic peptide is 70% or more.)”. The Kd on human integrin αvβ5 (setting [2]) was below 50 nM.
In the case of `CC[C@H](C)[C@@H]1NC(=O)[C@@H](NC(=O)[C@H](CCCCN)NC(=O)[C@H](CCCCN)NC(=O)[C@@H](N)CCCCN)CCSCC(=O)NCC[C@@H](C(=O)N[C@@H](C)C(=O)O)NC(=O)[C@H](C)NC(=O)[C@H](C)NC(=O)[C@H](CCCNC(=N)N)NC(=O)[C@H](Cc2ccccc2)NC(=O)[C@H](CC(N)=O)NC(=O)[C@H](CC(=O)O)NC(=O)CNC(=O)[C@H](CCCNC(=N)N)NC(=O)[C@@H]2CCCN2C1=O` [Cyclic peptide 19, KKK-(Hcy)-IPRGDNFRAA(Dab(acetyl))A] (H-KKK[hCys]IPRGDNFRAA[Dab]A-OH; linker 4-15 via X2), the “Performance evaluation: Stability (residual rate of cyclic peptide after alkali treatment)” value in data set [1] is listed as “A (The residual rate of the cyclic peptide is 70% or more.)”. In addition, the Kd at human integrin αvβ5 (setting [3]) was below 50 nM.
Regarding `CC[C@H](C)[C@@H]1NC(=O)[C@@H](NC(=O)CNC(=O)[C@H](CCCCN)NC(=O)[C@H](CCCCN)NC(=O)[C@@H](N)CCCCN)CCSCC(=O)NCC[C@@H](C(=O)N[C@@H](C)C(=O)O)NC(=O)[C@H](CCCNC(=N)N)NC(=O)[C@H](Cc2ccccc2)NC(=O)[C@H](CC(N)=O)NC(=O)[C@H](CC(=O)O)NC(=O)CNC(=O)[C@H](CCCNC(=N)N)NC(=O)[C@@H]2CCCN2C1=O` [Cyclic peptide 1, KKKG-(Hcy)-IPRGDNFR(Dab(acetyl))A] (H-KKKG[hCys]IPRGDNFR[Dab]A-OH; linker 5-14 via X2), in data set [1], the “Performance evaluation: Stability (residual rate of cyclic peptide after alkali treatment)” value is recorded as “A (The residual rate of the cyclic peptide is 70% or more.)”. Moreover, on human integrin αvβ5 (setting [3]), the Kd was below 50 nM.
In the case of `C[C@H](NC(=O)[C@H](CCCCN)NC(=O)[C@H](CCCCN)NC(=O)[C@@H](N)CCCCN)C(=O)N[C@H]1CCSCC(=O)NCC[C@@H](C(=O)NCC(=O)O)NC(=O)[C@H](CCCNC(=N)N)NC(=O)[C@H](Cc2ccc(O)cc2)NC(=O)[C@H](CC(N)=O)NC(=O)[C@H](CC(=O)O)NC(=O)CNC(=O)[C@H](CCCNC(=N)N)NC(=O)[C@@H]2CCCN2C(=O)[C@H](CCC(=O)O)NC1=O` [Cyclic peptide 40, KKKA-(Hcy)-EPRGDNYR(Dab(acetyl))G] (H-KKKA[hCys]EPRGDNYR[Dab]G-OH; linker 5-14 via X2), in data set [1], the “Performance evaluation: Stability (residual rate of cyclic peptide after alkali treatment)” value is reported as “A (The residual rate of the cyclic peptide is 70% or more.)”. Besides, the Kd at human integrin αvβ5 (setting [3]) was 50 to 100 nM.
`CC[C@H](C)[C@@H]1NC(=O)[C@@H](NC(=O)CNC(=O)[C@H](CCCCN)NC(=O)[C@H](CCCCN)NC(=O)[C@@H](N)CCCCN)CCSCC(=O)NCC[C@@H](C(=O)N[C@@H](C)C(=O)O)NC(=O)[C@H](Cc2ccccc2)NC(=O)[C@H](CC(N)=O)NC(=O)[C@H](CC(=O)O)NC(=O)CNC(=O)[C@H](CCCNC(=N)N)NC(=O)[C@@H]2CCCN2C1=O` [Cyclic peptide 6, KKKG-(Hcy)-IPRGDNF(Dab(acetyl))A] (H-KKKG[hCys]IPRGDNF[Dab]A-OH; linker 5-13 via X2): in data set [1], the “Performance evaluation: Stability (residual rate of cyclic peptide after alkali treatment)” value is “A (The residual rate of the cyclic peptide is 70% or more.)”. Besides, the Kd at human integrin αvβ5 (setting [3]) fell in the range of 50 to 100 nM.
For `CC[C@H](C)[C@@H]1NC(=O)[C@@H](NC(=O)CNC(=O)[C@H](CCCCN)NC(=O)[C@H](CCCCN)NC(=O)[C@@H](N)CCCCN)CCCCNC(=O)CSCC[C@@H](C(=O)N[C@@H](C)C(=O)O)NC(=O)[C@H](CCCNC(=N)N)NC(=O)[C@H](Cc2ccccc2)NC(=O)[C@H]([C@@H](C)O)NC(=O)[C@H](CC(=O)O)NC(=O)CNC(=O)[C@H](CCCNC(=N)N)NC(=O)[C@@H]2CCCN2C1=O` [Cyclic peptide 120, KKKG(Lys(acetyl))IPRGDTFR-(Hcy)-A] (H-KKKGKIPRGDTFR[hCys]A-OH; linker 5-14 via X1), the “Stability (molecule stability, residual rate of the cyclic peptide rank)” value in data set [1] is “A (The residual rate of the cyclic peptide is 70% or more.)”. Also, the Kd on human integrin αvβ5 (setting [2]) was 50 to 100 nM.
On to `C[C@H](NC(=O)[C@@H]1CCNC(=O)CSCC[C@H](NC(=O)CNC(=O)[C@H](CCCCN)NC(=O)[C@H](CCCCN)NC(=O)[C@@H](N)CCCCN)C(=O)N2CCC[C@H]2C(=O)N[C@@H](CCCNC(=N)N)C(=O)NCC(=O)N[C@@H](CC(=O)O)C(=O)N[C@@H](CC(N)=O)C(=O)N[C@@H](Cc2ccccc2)C(=O)N[C@@H](CCCNC(=N)N)C(=O)N1)C(=O)O` [Cyclic peptide 8, KKKG-(Hcy)-PRGDNFR(Dab(acetyl))A] (H-KKKG[hCys]PRGDNFR[Dab]A-OH; linker 5-13 via X2), for which, in data set [1], the “Performance evaluation: Stability (residual rate of cyclic peptide after alkali treatment)” value is “A (The residual rate of the cyclic peptide is 70% or more.)”. Moreover, the Kd on human integrin αvβ5 (setting [3]) lay in the range of 50 to 100 nM.
For `CC[C@H](C)[C@@H]1NC(=O)[C@@H](NC(=O)CNC(=O)[C@H](CCCCN)NC(=O)[C@H](CCCCN)NC(=O)[C@@H](N)CCCCN)CCSCC(=O)NCC[C@@H](C(=O)N[C@@H](C)C(=O)O)NC(=O)[C@H](CCCNC(=N)N)NC(=O)[C@H](Cc2ccccc2)NC(=O)[C@H]([C@@H](C)O)NC(=O)[C@H](CC(=O)O)NC(=O)CNC(=O)[C@H](CCCNC(=N)N)NC(=O)[C@@H]2CCCN2C1=O` [Cyclic peptide 54, KKKG-(Hcy)-IPRGDTFR(Dab(acetyl))A] (H-KKKG[hCys]IPRGDTFR[Dab]A-OH; linker 5-14 via X2), the “Performance evaluation: Stability (residual rate of cyclic peptide after alkali treatment)” value in data set [1] is given as “A (The residual rate of the cyclic peptide is 70% or more.)”. Besides, the Kd on human integrin αvβ5 (setting [3]) was below 50 nM.
